Measured values taken from patent US20260315434A1, “USE OF GUAIACOL SESQUITERPENE LACTONE DERIVATIVES” (NANJING UNIVERSITY OF CHINESE MEDICINE, priority 2023, published 2026).

Assays:
[1] = Conversion (release) of prodrug salts to parent compound in mouse plasma; type: in vitro ADME; settings: 37 °C; for metabolised at 1 h / metabolised at 2 h / metabolised at 4 h / metabolised at 8 h / metabolised at 12 h: mouse, plasma, read-out: Release rate (conversion to Compound 1)
Description: (§1) Pharmaceutically acceptable salts of guaiane-type sesquiterpene lactone derivatives were selected and evaluated for their conversion rates to Compound 1 and Compound 83 in plasma and HEPES buffer, with results shown in Tables 2-1, 2-2, 3-1, and 3-2.
Plasma Preparation: Collect mouse plasma into an EP tube pre-loaded with sodium heparin, centrifuge at 8000 rpm for 10 minutes at 4° C., and then collect the supernatant.
(§2) Sample Analysis: Dissolve 0.6 mg of the compound in 250 μL of deionized water separately. Add 250 μL of mouse serum or HEPES 7.4 solution to the sample, incubate at a constant temperature of 37° C., and collect samples at different time points. Pipette 20 μL of the sample to an EP tube, add 60 μL of methanol, vortex to mix thoroughly, and centrifuge at 12,000 rpm at 4° C. for 10 min. At 1 h, 2 h, 4 h, 8 h, and 12 h respectively, collect the supernatant for HPLC analysis. Inject 10 μL of sample and record the corresponding peak areas. Chromatographic conditions: Hanbang C18 column (4.6×250 mm, 5 μm); mobile phase: acetonitrile: […] ammonium formate solution=60:40; flow rate 1.0 mL/min; detection wavelength 210 nm; column temperature 30° C.

[2] = Conversion (release) of prodrug salts to parent compound in HEPES buffer pH 7.4; type: in vitro ADME; settings: for Release rate (conversion to Compound 1): HEPES pH 7.4, 37 °C; for degraded at 1 h / degraded at 2 h / degraded at 4 h / degraded at 8 h / degraded at 12 h: hepes buffer, pH 7.4, HEPES pH 7.4, 37 °C, read-out: Release rate (conversion to Compound 1)
Description: as §1
Experimental Method: Preparation of HEPES 7.4 Solution: Dissolve 1.6 g NaCl, 0.074 g KCl, 0.027 g Na2HPO4, 0.2 g glucose, and 1 g 4-(2-Hydroxyethyl)piperazine-1-ethanesulfonic acid (HEPES) solution in 90 mL distilled water. Adjust the pH to 7.4 using 0.5 M NaOH, then dilute to a final volume 100 mL with distilled water.
as §2

T cells / MDSCs = assay: Promotion of T cell proliferation in a co-culture model of MDSCs and T cells; type: cell-based, mouse; settings: for activation at 1 µM: Mus musculus, T-cell, 12 h, read-out: T-cell proliferation rate (%), 1 μM, MDSCs treated 12 hours, co-culture of MDSCs and T cells, compared to the control group
Description: Under sterile conditions, the tibia was removed, both ends of the bone were cut, and bone marrow was repeatedly flushed into a 15 mL centrifuge tube using a 1 mL syringe filled with culture medium. Centrifuge at 1600 rpm for 5 min to collect bone marrow cells. […] The spleen cell suspension was then transferred into a 15 mL centrifuge tube. Centrifuge at 1600 rpm for 5 min to collect T cells. Wash twice with 1×PBS. Resuspend the centrifuged T cells in 1 mL PBS and add 1 mL of 10 μM CFDA-SE solution. Incubate at room temperature for 8 min. […] After drug administration, collect MDSC cells into centrifuge tubes. Centrifuge at 1600 rpm for 5 min, remove supernatant, resuspend in 1 mL fresh medium, and plate. Add 1 mL stimulated activated T cells (1:1 ratio) for 48 h co-culture. After incubation, collect cells into centrifuge tubes, wash twice with PBS, and incubate with Fc antibody at room temperature in the dark for 10 min. Add CD3-labeled flow cytometry antibody and incubate at 4° C. in the dark for 30 min. After incubation, wash cells with PBS, resuspend in 300 μL PBS, and analyze by flow cytometry.

CN(C)C[C@@H]1C(=O)O[C@H]2[C@H]1CC[C@@]1(C)C[C@]13CC[C@@](C)(O)[C@H]23 [Compound 42]
Release rate (conversion to Compound 1) ([1]; 1 h, 60 min): 6.3%
Release rate (conversion to Compound 1) ([1]; 2 h, 120 min): 14.2%
Release rate (conversion to Compound 1) ([1]; 4 h, 240 min): 26.2%
Release rate (conversion to Compound 1) ([1]; 8 h, 480 min): 41.0%
Release rate (conversion to Compound 1) ([1]; 12 h, 720 min): 47.2%
Release rate (conversion to Compound 1) ([2]; 1 h, 60 min): 7.0%
Release rate (conversion to Compound 1) ([2]; 2 h, 120 min): 15.0%
Release rate (conversion to Compound 1) ([2]; 4 h, 240 min): 25.2%
Release rate (conversion to Compound 1) ([2]; 8 h, 480 min): 42.8%
Release rate (conversion to Compound 1) ([2]; 12 h, 720 min): 52.3%

CC1CCN(C[C@@H]2C(=O)O[C@H]3[C@H]2CC[C@@]2(C)C[C@]24CC[C@@](C)(O)[C@H]34)CC1 [Compound 43]
T-cell proliferation rate (%) (T cells / MDSCs; 1 μM, MDSCs treated 12 hours, co-culture of MDSCs and T cells, compared to the control group): + (T-cell proliferation rate within the 0-20% range compared to the control group)

CCC(=O)O[C@]1(C)CC[C@@]23C[C@]2(C)CC[C@@H]2[C@H](CC(=O)[C@H]2CN(C)C)[C@H]31 [Compound 63]
activation at 1 µM (T cells / MDSCs): 0 to 20%

CCN(CC)C[C@@H]1C(=O)O[C@H]2[C@H]1CC[C@@]1(C)C[C@]13CC[C@@](C)(O)[C@H]23 [Compound 28]
metabolised at 1 h ([1]; 1 h): 6.8%
metabolised at 2 h ([1]; 2 h): 14.5%
metabolised at 4 h ([1]; 4 h): 24.4%
metabolised at 8 h ([1]; 8 h): 40.4%
metabolised at 12 h ([1]; 12 h): 49.1%
degraded at 1 h ([2]; 1 h): 6.8%
degraded at 2 h ([2]; 2 h): 14.5%
degraded at 4 h ([2]; 4 h): 24.4%
degraded at 8 h ([2]; 8 h): 40.4%
degraded at 12 h ([2]; 12 h): 50%

C=C1C(=O)O[C@H]2[C@H]1CCC(C)=C1CC[C@@](C)(OC(=O)N3CCN(CC)CC3)[C@@H]12 [Compound 86]
activation at 1 µM (T cells / MDSCs): 20 to 40%

C=C1C(=O)O[C@H]2[C@H]1CCC(C)=C1CC[C@@](C)(OC(=O)NCCCO)[C@@H]12 [Compound 72]
activation at 1 µM (T cells / MDSCs): 20 to 40%

C=C1C(=O)O[C@H]2[C@H]1CCC(C)=C1CC[C@@](C)(OC(=O)N(C)CCC)[C@@H]12 [Compound 90]
activation at 1 µM (T cells / MDSCs): 20 to 40%

C=C1C(=O)O[C@H]2[C@H]1CCC(C)=C1CC[C@@](C)(OC(=O)NCCOCCO)[C@@H]12 [Compound 76]
activation at 1 µM (T cells / MDSCs): 20 to 40%

C=C1C(=O)O[C@H]2[C@H]1CCC(C)=C1CC[C@@](C)(OC(=O)NC)[C@@H]12 [Compound 64]
activation at 1 µM (T cells / MDSCs): > 40%

C[C@@]12CC[C@@H]3[C@H](OC(=O)[C@H]3CN3CCNCC3)[C@@H]3[C@]1(CC[C@@]3(C)O)C2 [Compound 7]
activation at 1 µM (T cells / MDSCs): 0 to 20%

C=C1C(=O)O[C@H]2[C@H]1CCC(C)=C1CC[C@@](C)(OC(=O)NCCOC)[C@@H]12 [Compound 74]
activation at 1 µM (T cells / MDSCs): > 40%

C[C@@]12CC[C@@H]3[C@H](OC(=O)[C@H]3CN3CCCC3)[C@@H]3[C@]1(CC[C@@]3(C)O)C2 [Compound 22]
metabolised at 1 h ([1]; 1 h): 7.4%
metabolised at 2 h ([1]; 2 h): 16.8%
metabolised at 4 h ([1]; 4 h): 27.6%
metabolised at 8 h ([1]; 8 h): 46.3%
metabolised at 12 h ([1]; 12 h): 57.7%
degraded at 1 h ([2]; 1 h): 6.4%
degraded at 2 h ([2]; 2 h): 14.8%
degraded at 4 h ([2]; 4 h): 26.6%
degraded at 8 h ([2]; 8 h): 41.3%
degraded at 12 h ([2]; 12 h): 53.7%

CC1=C2CC[C@@](C)(OC(=O)N3CCCCC3)[C@@H]2[C@H]2OC(=O)[C@@H](CN(C)C)[C@@H]2CC1 [Compound 97]
activation at 1 µM (T cells / MDSCs): 0 to 20%

CC1=C2[C@H]3OC(=O)[C@@H](CN(C)C)[C@@H]3CC[C@@]3(C)C[C@@]23CC1 [Compound 62]
activation at 1 µM (T cells / MDSCs): 0 to 20%

C=C1C(=O)O[C@H]2[C@H]1CCC(C)=C1CC[C@@](C)(OC(=O)NCC)[C@@H]12 [Compound 65]
activation at 1 µM (T cells / MDSCs): 0 to 20%

C=C1C(=O)O[C@H]2[C@H]1CCC(C)=C1CC[C@@](C)(OC(=O)NCCC)[C@@H]12 [Compound 66]
activation at 1 µM (T cells / MDSCs): 0 to 20%

CN(C)C[C@@H]1C(=O)O[C@H]2[C@H]1CC[C@@]1(C)C[C@]13CC[C@@](C)(O)[C@H]23 [Compound 39]
metabolised at 1 h ([1]; 1 h): 6.6%
metabolised at 2 h ([1]; 2 h): 14%
metabolised at 4 h ([1]; 4 h): 26.2%
metabolised at 8 h ([1]; 8 h): 43.6%
metabolised at 12 h ([1]; 12 h): 52.8%
Release rate (conversion to Compound 1) ([2]; 1 h, 60 min): 6.6%
degraded at 2 h ([2]; 2 h): 15%
degraded at 4 h ([2]; 4 h): 26.8%
degraded at 8 h ([2]; 8 h): 42.7%
degraded at 12 h ([2]; 12 h): 54.3%

C=C1C(=O)O[C@H]2[C@H]1CCC(C)=C1CC[C@@](C)(OC(=O)NCCN3CCN(C)CC3)[C@@H]12 [Compound 95]
activation at 1 µM (T cells / MDSCs): 20 to 40%

C=C1C(=O)O[C@H]2[C@H]1CCC(C)=C1CC[C@@](C)(OC(=O)NCCCC)[C@@H]12 [Compound 67]
activation at 1 µM (T cells / MDSCs): 20 to 40%

CC(C)(C)OC(=O)N1CCN(C[C@@H]2C(=O)O[C@H]3[C@H]2CC[C@@]2(C)C[C@]24CC[C@@](C)(O)[C@H]34)CC1 [Compound 44]
activation at 1 µM (T cells / MDSCs): 0 to 20%

C=C1C(=O)O[C@H]2[C@H]1CCC(C)=C1CC[C@@](C)(OC(=O)N3CCOCC3)[C@@H]12 [Compound 87]
activation at 1 µM (T cells / MDSCs): > 40%

C[C@@]12CC[C@@H]3[C@H](OC(=O)[C@H]3CN3CCNCC3)[C@@H]3[C@]1(CC[C@@]3(C)O)C2 [Compound 26]
metabolised at 1 h ([1]; 1 h): 7.8%
metabolised at 2 h ([1]; 2 h): 17.1%
metabolised at 4 h ([1]; 4 h): 29.3%
metabolised at 8 h ([1]; 8 h): 48.5%
metabolised at 12 h ([1]; 12 h): 65.6%
degraded at 1 h ([2]; 1 h): 6.8%
degraded at 2 h ([2]; 2 h): 16.1%
degraded at 4 h ([2]; 4 h): 27.3%
degraded at 8 h ([2]; 8 h): 43.5%
degraded at 12 h ([2]; 12 h): 55.6%

C=C1C(=O)O[C@H]2[C@H]1CCC(C)=C1CC[C@@](C)(OC(=O)N(CC)CC)[C@@H]12 [Compound 81]
activation at 1 µM (T cells / MDSCs): 20 to 40%

C=C1C(=O)O[C@H]2[C@H]1CCC(C)=C1CC[C@@](C)(OC(=O)NCCO)[C@@H]12 [Compound 71]
activation at 1 µM (T cells / MDSCs): > 40%

C=C1C(=O)O[C@H]2[C@H]1CCC(C)=C1CC[C@@](C)(OC(=O)NCCCOC)[C@@H]12 [Compound 75]
activation at 1 µM (T cells / MDSCs): 20 to 40%

CCN1CCN(C[C@@H]2C(=O)O[C@H]3[C@H]2CC[C@@]2(C)C[C@]24CC[C@@](C)(O)[C@H]34)CC1 [Compound 27]
metabolised at 1 h ([1]; 1 h): 7.9%
metabolised at 2 h ([1]; 2 h): 17.4%
metabolised at 4 h ([1]; 4 h): 28.4%
metabolised at 8 h ([1]; 8 h): 48.2%
metabolised at 12 h ([1]; 12 h): 59.1%
degraded at 1 h ([2]; 1 h): 6.9%
degraded at 2 h ([2]; 2 h): 15.4%
degraded at 4 h ([2]; 4 h): 27.4%
degraded at 8 h ([2]; 8 h): 42.2%
degraded at 12 h ([2]; 12 h): 54.8%

CN(C)C[C@@H]1C(=O)O[C@H]2[C@H]1CC[C@@]1(C)C[C@]13CC[C@@](C)(O)[C@H]23 [Compound 40]
Release rate (conversion to Compound 1) ([1]; 1 h, 60 min): 6.7%
Release rate (conversion to Compound 1) ([1]; 2 h, 120 min): 14.2%
Release rate (conversion to Compound 1) ([1]; 4 h, 240 min): 26.8%
Release rate (conversion to Compound 1) ([1]; 8 h, 480 min): 44.0%
Release rate (conversion to Compound 1) ([1]; 12 h, 720 min): 52.6%
Release rate (conversion to Compound 1) ([2]; 1 h, 60 min): 6.8%
Release rate (conversion to Compound 1) ([2]; 2 h, 120 min): 14.6%
Release rate (conversion to Compound 1) ([2]; 4 h, 240 min): 26.2%
Release rate (conversion to Compound 1) ([2]; 8 h, 480 min): 44.0%
Release rate (conversion to Compound 1) ([2]; 12 h, 720 min): 50.2%

CN(C)C[C@@H]1C(=O)O[C@H]2[C@H]1CC[C@@]1(C)C[C@]13CC[C@@](C)(O)[C@H]23 [Compound 41]
Release rate (conversion to Compound 1) ([1]; 1 h, 60 min): 7.8%
Release rate (conversion to Compound 1) ([1]; 2 h, 120 min): 17.2%
Release rate (conversion to Compound 1) ([1]; 4 h, 240 min): 28.0%
Release rate (conversion to Compound 1) ([1]; 8 h, 480 min): 46.1%
Release rate (conversion to Compound 1) ([1]; 12 h, 720 min): 54.8%
Release rate (conversion to Compound 1) ([2]; 1 h, 60 min): 7.0%
Release rate (conversion to Compound 1) ([2]; 2 h, 120 min): 16.2%
Release rate (conversion to Compound 1) ([2]; 4 h, 240 min): 27.3%
Release rate (conversion to Compound 1) ([2]; 8 h, 480 min): 43.4%
Release rate (conversion to Compound 1) ([2]; 12 h, 720 min): 53.2%
